# What was measured:
# Type in all cases: in vivo, BALB/c mice
# [1] = tested on: CT-26 mouse colon adenocarcinoma; assay: Anti-tumor activity in the CT-26 colon adenocarcinoma mouse model (with anti-PD-1, 10 mice per cohort); settings: for tumor growth kinetics: during the period of dosing, compared with vehicle treated mice, FIG. 22
# Procedure: The antitumor activity of Compound B as a single agent and combined with a mouse anti-PD-1 antibody was evaluated in the CT-26 mouse colon adenocarcinoma model grown in BALB/c mice. Mice were inoculated subcutaneously in the right flank with 5×10^5 tumor cells.
# When tumors reached an average size of 71 mm^3 (6 days after tumor cell inoculation) dosing was initiated. The dosing regimens in the 8 separate cohorts comprising 10 mice each are as follows: […]
# [2] = tested on: CT-26 mouse colon adenocarcinoma; assay: Anti-tumor activity in the CT-26 model, additional experiment (with anti-PD1, 7 mice per cohort); settings: during the period of dosing; single agents (Compound B 15 mg/kg BID p.o.; anti-PD1 10 mg/kg BIW i.p.); compared with vehicle group; FIG. 26
# Procedure: (§1) The antitumor activity of Compound B as a single agent and combined with a mouse anti-PD1 antibody was evaluated in the CT-26 mouse colon adenocarcinoma model grown in BALB/c mice in an additional experiment. Mice were inoculated subcutaneously in the right flank with 5×10^5 tumor cells. When tumors reached an average size of 91 mm^3 dosing was initiated. The dosing regimens in the 4 separate cohorts comprising 7 mice each are as follows: […]
# 4T1 mouse breast cancer [3] = assay: Anti-tumor activity in the 4T1 breast cancer mouse model (with anti-CTLA4)
# Procedure: The antitumor activity of Compound B (as described in example 14 above) as a single agent and combined with a mouse anti-CTLA4 antibody was evaluated in the 4T1 mouse breast cancer model grown in BALB/c mice. Mice were inoculated subcutaneously in the right flank with 3×10^5 tumor cells. When tumors reached an average size of 100 mm^3 (7 days after tumor cell inoculation) dosing was initiated.
# 4T1 mouse breast cancer [4] = assay: Anti-tumor activity in the 4T1 model, additional experiment (with anti-PD1, 7 mice per cohort); settings: during the period of dosing; Compound B 15 mg/kg BID; compared with vehicle group and anti-PD1 dosed alone; FIG. 27
# Procedure: as §1, with “4T1” for “CT-26”, “breast cancer” for “colon adenocarcinoma”, “3×10^5” for “5×10^5”, “97” for “91”
# [5] = tested on: immune cells of CT-26 tumors; assay: Immune cell composition of CT-26 tumors by multi-color flow cytometry; settings: after 7 days dosing, Compound B 15 mg/kg BID p.o., anti-PD1 10 mg/kg Q3D i.p., vs vehicle
# Procedure: The immune cell composition of Compound B (as described in example 14 above) as a single agent and combined with a mouse anti-PD1 antibody was evaluated in the CT-26 mouse colon adenocarcinoma model grown in BALB/c mice. Mice were inoculated subcutaneously in the right flank with 5×10^5 tumor cells. When tumors reached an average size of 85 mm^3 dosing was initiated. The dosing regimens in the 4 separate cohorts comprising 10 mice each are listed as follows:
# After dosing animals for 7 days, tumors were resected and used to prepare single cell suspensions. Live cells representing tumor and immune cells were stained with cocktails of antibodies targeting multiple immune cell markers (anti-CD45, anti-CD3, anti-CD4, anti-CD8, anti-CD25, anti-FoxP3, anti-PD-1, anti-CD11c) conjugated to different fluorescent tags. The stained cells were fixed in 4% paraformaldehyde and quantified using a multi-color flow cytometer (Fortessa). The data was analyzed with FloJo software.
# [6] = 99 days after tumor inoculation, 10 mice per cohort
smiles,measurement,setting,value
C[C@H](NC(=O)c1cc(Cl)cnc1Oc1cccc(F)c1)c1ccc(C(=O)O)cc1 [Compound B],mice still alive,[1]; [6],1 out of 10
same,mice tumor free,[1]; [6],1 out of 10
same,tumor growth kinetics,[1]; 15 mg/kg BID p.o.,not notably different
same,tumor growth kinetics,[1]; 15 mg/kg QD p.o.,not notably different
same,tumor growth kinetics,[2],less than that of the vehicle group
same,mice still alive,"4T1 mouse breast cancer [3]; 47 days after tumor inoculation, 10 mice per group",none
same,tumor growth kinetics,"4T1 mouse breast cancer [3]; during the period of dosing, single agents (Compound B 15 mg/kg BID; anti-CTLA4), relative to vehicle treated mice, FIG. 24",decreased relative to the vehicle treated mice
same,tumor growth kinetics,4T1 mouse breast cancer [4],less than that of the vehicle group and anti-PD1 when dosed alone
same,"regulatory T cells (CD45, CD4, FoxP3, CD25 positive) in tumor",[5]; FIG. 28a,significant decrease
same,"percentage of dendritic cells (CD45, CD11c positive) in tumor",[5]; FIG. 28b,increased percentage
same,"percentage of activated T cells (CD45, CD3, CD8; CD25 expression) in tumor",[5]; FIG. 28c,did not

# — US12295962B2, “Polymorphic compounds and uses thereof” (AskAt Inc., priority 2018, dated 2025)
